Data published in patent US8273562B2, “Method for producing 4-hydroxy-L-isoleucine” (Ajinomoto Co., Inc., priority 2006, dated 2012).

Key:
L-Ile hydroxylase [1] = molecular target: T1, L-Ile hydroxylase (Bacillus thuringiensis, UniProt E2GIN1); assay: Effects of addition of cofactors on 4-hydroxyisoleucine production with purified enzyme; type: biochemical; details: purified enzyme + 5 mM L-Ile + 5 mM cofactor; 100 mM HEPES pH 6
T1 construct: made in house; host or cells: Bacillus thuringiensis 2-e-2 (natural producer; enzyme purified by chromatography, not recombinant)
T1 sequence (E2GIN1 2-240): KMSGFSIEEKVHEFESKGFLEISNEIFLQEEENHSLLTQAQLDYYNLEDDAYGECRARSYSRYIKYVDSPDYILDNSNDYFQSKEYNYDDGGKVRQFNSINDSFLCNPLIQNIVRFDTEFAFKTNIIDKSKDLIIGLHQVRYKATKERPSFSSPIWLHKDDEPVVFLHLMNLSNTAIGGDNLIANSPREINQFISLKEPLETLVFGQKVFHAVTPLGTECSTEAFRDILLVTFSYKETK
Text: The effects of cofactors on the production of 4-hydroxyisoleucine by hydroxylation of Ile were examined by using the purified enzyme.

[2] = molecular target: T2, enzyme in 2-e-2 cell lysate (Bacillus thuringiensis, UniProt E2GIN1); assay: Effects of enzyme cofactors on 4-hydroxyisoleucine production with 2-e-2 cell lysate; type: biochemical; details: Lysate + 5 mM Ile + 5 mM cofactor; 50 mM HEPES pH 7
T2 construct: the collected and washed 2-e-2 cells were disrupted using a mortar; endogenous in cells; host or cells: Bacillus thuringiensis 2-e-2 cell lysate
T2 sequence (E2GIN1 2-240): as above
Experimental: (§1) The cells were cultured in the AMKP medium until OD660 of 3.2 was achieved, then the collected and washed 2-e-2 cells were disrupted using a mortar, and suspended in a buffer (50 mM HEPES (pH 7.0), 10% of glycerol, Complete Mini (Roche)) until a suspension (lysate) is obtained having a protein concentration of about 10 mg/ml including centrifugation precipitates. The centrifugation precipitates were finally suspended in physiological saline of the same volume as the cell lysate. These were each mixed with an equal volume of a 2× dioxygenase reaction mixture (10 mM Ile, […], 10 mM 2-oxoglutaric acid, 10 mM ascorbic acid, 100 mM HEPES (pH 7.0)), and the reaction proceeded at 30° C. for 1 hour. Similarly, resting cells used for the preparation of the cell lysate were washed, and suspended in physiological saline at a concentration 10 times that in the culture broth, the suspension was mixed with an equal volume of the 2× dioxygenase reaction mixture, and the reaction proceeded.
By using a cell lysate of the 2-e-2 cells in the logarithmic growth phase, the effects of cofactors on the 4-hydroxyisoleucine production reaction by hydroxylation of Ile were examined. A 50 mM HEPES (pH 7) reaction mixture was used containing final concentrations of 5 mM Ile and 5 mM of one of various cofactors with a cell lysate of the 2-e-2 cells (lysate) in the logarithmic growth phase prepared by the method described in <5> above, and the amount of 4-hydroxyisoleucine produced was measured.

[3] = molecular target: T2, enzyme in 2-e-2 cell lysate; assay: Effect of inhibitors on 4-hydroxyisoleucine production in the 2-e-2 cell lysate; type: biochemical; details: 10 mM inhibitor, pH 6, 30° C., 1 hour
Experimental: as §1
By using a cell lysate prepared from 2-e-2 cells at OD660 of 7 according to the method described in <5>, the effects of inhibitors on the 4-hydroxyisoleucine production were examined. […] The dioxygenase reaction mixture contained 5 mM Ile, 5 mM Fe^2+, 5 mM 2-oxoglutaric acid, 5 mM ascorbic acid, and 100 mM HEPES (pH 6), the reaction temperature was 30° C., and the reaction time was 1 hour. The amount of 4-hydroxyisoleucine which was produced when 10 mM of each inhibitor (EDTA, Cu^2+, Zn^2+) was added to the reaction system was measured. 4-Hydroxyisoleucine was analyzed by the method described in <2>. The isoleucine hydroxylation activity was inhibited by the inhibitors.

L-Ile hydroxylase [4] = molecular target: T1, L-Ile hydroxylase; assay: Effects of inhibitors on 4-hydroxyisoleucine production by purified L-Ile hydroxylase; type: biochemical; details: 10 mM inhibitor; 4-hydroxyisoleucine production with no inhibitor = 100%; pH 6, 30° C., 1 hour
Experimental: Each fraction was reacted using an Ile hydroxylation activity reaction mixture (100 mM HEPES (pH 6.0), 5 mM L-Ile, 5 mM Fe^2+, 5 mM 2-oxoglutaric acid, 5 mM ascorbic acid at final concentrations) at 30° C. for 30 minutes. The enzyme was inactivated at 100° C., and then the amount of 4-hydroxyisoleucine was quantified by the aforementioned AMKP and HIL separation and measurement method. The 4-hydroxyisoleucine referred to in the subsequent analysis indicates a substance that is substantially composed of the isomer having the same retention time as that of the naturally occurring 4-hydroxyisoleucine. The enzyme activity that produces 1 nmol of HIL per minute was defined as 1 U.
By using L-Ile hydroxylase prepared as described in Example 2, the effect of inhibitors on the production of 4-hydroxyisoleucine were examined. The enzymatic reaction solution contained 5 mM Ile, 5 mM Fe^2+, 5 mM 2-oxoglutaric acid, 5 mM ascorbic acid, and 100 mM HEPES (pH 6), the reaction temperature was 30° C., and the reaction time was 1 hour. The amount of 4-hydroxyisoleucine produced when 10 mM of each inhibitor (EDTA, Cu^2+, Zn^2+) was added to the reaction system was measured. These values are relative to the 4-hydroxyisoleucine production observed with no inhibitor, which was set as 100%. The isoleucine hydroxylation activity was lost in the presence of the inhibitors.

L-Ile hydroxylase [5] = molecular target: T1, L-Ile hydroxylase; assay: Substrate reaction characteristics of purified L-Ile hydroxylase; type: biochemical; details: 5 mM amino acid; purified enzyme; pH 6, 30° C., 1 hour; HPLC
Experimental: By using L-Ile hydroxylase prepared as described in Example 2, the reaction characteristics for various amino acids were evaluated. The enzyme solution and the reaction mixture were mixed, and then the reaction proceeded at 30° C. for 1 hour, and the production of new substances was evaluated by HPLC analysis. The enzymatic reaction solution contained 5 mM amino acid, 5 mM Fe^2+, 5 mM 2-oxoglutaric acid, 5 mM ascorbic acid, and 100 mM HEPES (pH 6). In addition to L-isoleucine, the amino acids D-isoleucine, L-leucine, L-valine, L-glutamic acid, and L-lysine were also individually evaluated. The produced 4-hydroxyisoleucine was analyzed as in Example 1. Like when using a cell lysate, production of a new substance could not be confirmed for amino acids other than L-isoleucine.

IDO(Lys,23) = IDO(Lys,23) (Bacillus thuringiensis, UniProt E2GIN1)
IDO(Lys,23), sequence (E2GIN1 2-240): as above

strain 2-e-2 = assay: Effect of addition of cofactors on AMKP production in culture of strain 2-e-2; type: cell-based, Bacillus thuringiensis; details: culture supernatant; 30° C., 22 hours; control 1.34
Experimental: The possibility of molecular oxygen uptake by hydroxylation was considered as a possible mechanism for the production of AMKP. Accordingly, the production of AMKP was analyzed when NAD(P)H, or Fe^2+, 2-oxoglutaric acid and ascorbic acid, were added during the culture of the 2-e-2 strain. NAD(P)H is a cofactor of monooxygenases and Fe^2+, 2-oxoglutaric acid and ascorbic acid are cofactors of dioxygenases.
The culture medium used in the previous screening was used as a control, and the production of AMKP was compared among cultures containing the cofactors as shown in Table 3. The culture temperature was 30° C., and the culture time was 22 hours. The concentration of AMKP in the culture supernatants was measured.

[6] = molecular target: T2, enzyme in 2-e-2 cell lysate; assay: Substrate reaction characteristics of enzyme in 2-e-2 cell lysate; type: biochemical; details: 5 mM amino acid, pH 7, 30° C., 1 hour, TLC or amino acid analysis
Experimental: as §1
By using a cell lysate prepared from 2-e-2 cells at OD660 of 7 according to the method described in <5>, the reaction characteristics for various amino acids were evaluated. The cell lysate and a substrate solution were mixed, then the reaction proceeded at 30° C. for 1 hour, and the production of new substances was evaluated by TLC or amino acid analysis. The substrate reaction mixture contained 5 mM amino acid, 5 mM Fe^2+, 5 mM 2-oxoglutaric acid, 5 mM ascorbic acid, and 100 mM HEPES (pH 7). In addition to L-isoleucine, the amino acids L-leucine, L-valine, L-glutamic acid, and L-lysine were each individually evaluated. The 4-hydroxyisoleucine which was produced was analyzed by the method described in Example 1. Production of amino acids other than L-isoleucine was not observed.

[7] = system: dioxygenase activity in fenugreek extract; details: cited from earlier work
[8] = Production of HIL from Ile with crude enzyme solution of E. coli expressing ido genes; type: biochemical, Escherichia coli; details: 28° C., 3 hours, control (pET21b) 11
Experimental: The plasmid expressing the ido gene from B. cereus ATCC 14579, B. thuringiensis AKU238, or B. weihenstephanensis KBAB4, which was constructed in Example 8, was introduced into E. coli Rosetta2 (DE3), and the transformants were cultivated with shaking in LB medium supplemented with 50 μg/ml ampicilin (preculture). By seeding the preculture broth in 50 ml LB medium at 1%, the main culture was carried out at 37° C. 2 hours after the start of the cultivation, IPTG was added to a final concentration of 1 mM, and the cultivation was carried out for an additional 3 hours. After completion of the cultivation, the cells were harvested, washed, suspended in 1 ml of 20 mM Tris-HCl (pH 7.6), and disrupted with a sonicator (INSONATOR 201M, KUBOTA). The lysate was centrifuged at 15000 rpm for 10 minutes, and the supernatant was used as a crude enzyme solution.
By using the crude enzyme solution prepared in (1), the conversion of Ile to HIL was measured. The reaction mixture is described below. The reaction mixture was reacted with shaking (300 rpm) at 28° C. for 3 hours, and then the amount of HIL produced was determined by HPLC.

## O=C1O[C@H]([C@@H](O)CO)C(O)=C1O [Ascorbate, ascorbic acid]
L-Ile hydroxylase [1]
  HIL: 0.00 mM
[2]
  HIL production: 0.00 mM

## [Cu+2] [Cu^2+]
[3]
  isoleucine hydroxylation activity in presence of inhibitor: inhibited
L-Ile hydroxylase [4]
  Relative activity (%): 0%

## CC[C@@H](C)[C@@H](N)C(=O)O [D-Isoleucine, D-isoleucine]
L-Ile hydroxylase [5]
  Product (reactivity for each amino acid): None

## O=C(O)CN(CCN(CC(=O)O)CC(=O)O)CC(=O)O [EDTA]
IDO(Lys,23)
  activity of IDO(Lys,23) in the presence of the substance: completely blocked
[3]
  isoleucine hydroxylation activity in presence of inhibitor: inhibited
L-Ile hydroxylase [4]
  Relative activity (%): 0%

## [Fe+2] [Fe^2+]
L-Ile hydroxylase [1]
  HIL: 0.00 mM
[2]
  HIL production: 0.00 mM
Strain 2-e-2
  AMKP concentration: 2.53 mM

## N[C@@H](CCC(=O)O)C(=O)O [L-Glutamic acid, L-glutamic acid]
L-Ile hydroxylase [5]
  Product (reactivity for each amino acid): None
[6]
  Product (reactivity for various amino acids): None

## CC[C@H](C)[C@H](N)C(=O)O [L-Isoleucine, L-isoleucine]
[7]
  isoleucine concentration that inhibits the activity of the enzyme: ≥ 20 mM
L-Ile hydroxylase [5]
  Product (reactivity for each amino acid): Produced (HIL)
[6]
  Product (reactivity for various amino acids): Produced (HIL)

## CC(C)C[C@H](N)C(=O)O [L-Leucine, L-leucine]
L-Ile hydroxylase [5]
  Product (reactivity for each amino acid): None
[6]
  Product (reactivity for various amino acids): None

## NCCCC[C@H](N)C(=O)O [L-Lysine, L-lysine]
L-Ile hydroxylase [5]
  Product (reactivity for each amino acid): None
[6]
  Product (reactivity for various amino acids): None

## CC(C)[C@H](N)C(=O)O [L-Valine, L-valine]
L-Ile hydroxylase [5]
  Product (reactivity for each amino acid): None
[6]
  Product (reactivity for various amino acids): None

## [Zn+2] [Zn^2+]
[3]
  isoleucine hydroxylation activity in presence of inhibitor: inhibited
L-Ile hydroxylase [4]
  Relative activity (%): 0%

## O=C(O)CCC(=O)C(=O)O [α-KG, 2-oxoglutaric acid]
L-Ile hydroxylase [1]
  HIL: 0.00 mM
[2]
  HIL production: 0.00 mM

## NAD(P)H
Strain 2-e-2
  AMKP concentration: 1.58 mM

B1: B. thuringiensis AKU238: crude enzyme solution of E. coli expressing ido gene from B. thuringiensis AKU238, SEQ ID NO: 17 (protein, listed as Bacillus thuringiensis)
chain: MEVFIMTFVLSKMSGFSIEEKVHEFESKGFLEISNEIFLQEEENHRLLTQAQLDYYNLEDDAYGECRARSYSRYIKYVDSPDYILDNSNDYFQSKEYNYDDGGKVRQFNSINDSFLCNPLIQNIVRFDTEFAFKTNIIDTSKDLIIGLHQVRYKATKERPSFSSPIWLHKDDEPVVFLHLMNLSNTAIGGDNLIANSPREINQFISLKEPLETLVFGQKVFHAVTPLGTECSTEAFRDILLVTFSYKETK
[8]
  Amount of HIL produced from Ile, HIL: 2016 µM

B2: B. weihenstephanensis KBAB4: crude enzyme solution of E. coli expressing ido gene from B. weihenstephanensis KBAB4, SEQ ID NO: 21 (protein, listed as Bacillus weihenstephanensis)
chain: MLTTVSNKTSSFDVEQKVHEFESNGYIQIFNDIFLQDQEDQALLTKAQLDYYSLQNDAYGECRARAYSRYIKYAGSSDYVLDTDNGYFQSEEYNYDDGGKIRNFNSITDEFLHNSLIEKIVRFDSEFASNTNILDTSKDLVIGLHQVRYKATRENPSFSSPIWLHKDDEPIVFLHLMNLSNTALGGDNLIANSPREINKLISLKDPLETLVFGQKVFHAVTPLGTECNTEALRDILLVTFSYKEPK
[8]
  Amount of HIL produced from Ile, HIL: 3116 µM

B3: B. thuringiensis israelensis ATCC35646: crude enzyme solution with IDO from B. thuringiensis israelensis ATCC 35646, SEQ ID NO: 8 (protein, listed as Bacillus thuringiensis)
chain: KMSGFSIEEKVHEFESKGFLEISNEIFLQEEENHSLLTQAQLDYYNLEDDAYGECRARSYSRYIKYVDSPDYILDNSNDYFQSKEYNYDDGGKVRQFNSINDSFLCNPLIQNIVHFDTEFAFKTNIIDKSKDLIIGLHQVRYKATKERPSFSSPIWLHKDDEPVVFLHLMNLSNTAIGGDNLIANSPREINQFISLKEPLETLVFGQKVFHAVTPLGTECSTEAFRDILLVTFSYKETK
[8]
  Amount of HIL produced from Ile, HIL: 2150 µM
